Data as given in EPA's ToxValDB 9.5.
“And” between values parts separate entries of the source, which are not always exact repeats. Equal entries are not always repeated.

Legend:
Canidae [1] = settings: chronic, oral, diet, Dog Other
Rattus norvegicus [2] = settings: Hershberger; duration: 10 days; oral; gavage; Sprague-Dawley; inactive + Negative + Negative + neither + negative
Canidae [3] = settings: chronic, oral, diet, M/F, Dog Other
Rattus norvegicus [4] = settings: chronic, duration: 2 years, oral
Mus musculus [5] = tested on: Mus musculus
Rattus norvegicus [6] = settings: chronic, M/F
Rattus norvegicus [7] = tested on: Rattus norvegicus
Mus musculus [8] = settings: M/F
Rattus norvegicus [9] = settings: for LC50 / LD50: acute
Mus musculus [10] = settings: for LD50: acute
Mus musculus [11] = settings: repeat dose other; oral
Rattus norvegicus [12] = settings: subchronic, oral
Mus musculus [13] = tested on: Mus musculus; remark: listed apart in the source
Cavia porcellus = settings: acute, Guinea Pig
Rattus norvegicus [14] = assay: LC0; higher = less toxic; settings: acute
Mus musculus [15] = settings: subchronic, oral; for NOAEL: M/F, CD1, Hepatic
Oryctolagus sp. = settings: for LD50: acute, dermal; for NOAEL: reproduction developmental, duration: 13 days, oral, gavage
Microhyla ornata = settings: short-term, whole body
[16] = duration: 2 years, kidney and spleen pathology
[17] = inhalation, nasal epithelial lesions
[18] = subchronic, inhalation, reduced body weight
[19] = reproduction developmental, duration: 6 days, inhalation, Crl: CFW(SW)Br, Charles River Laboratories, generation: F1
[20] = reproduction developmental, inhalation, M, CD1
[21] = duration: 1 years, kidney and liver toxicity
[22] = subchronic, oral, drinking water, clinical serum chemistry (effects on erythrocytes and reduced humoral immune status)
[23] = subchronic, duration: 90 days, oral, diet, Fischer 344
[24] = reproduction developmental, injection, Intraperitoneal, generation: F1
[25] = duration: 13 weeks, diet, M/F, Fischer 344, Body Weight Changes: Body weight gain decrease + Food Consumption: decrease + Hematology: MCH decrease MCV decrease + Blood Chemistry: T-…
[26] = duration: 2 years, reduced body weight gain, increased liver and kidney weight, and rbc cholinesterase inhibition
[27] = subchronic, oral, gavage, dyspnea, abnormal appearance, liver enlargement
[28] = subchronic, oral, reduced rbc, packed cell volume and hemoglobin
[29] = chronic, duration: 104 weeks, oral, diet, reduced hemoglobin and erythrocyte destruction

`CNC(=O)ON=C(C)SC` [Methomyl] was tested, and the NOEL (Canidae [1]; duration: 24 months, Kidney: Lesions) was 2.5 mg/kg-day, the NOEL (Rattus norvegicus [2]) was 1 mg/kg-day and the LEL (Canidae [3]; [16]) was 10 mg/kg-day. It also gave an NOEL (Canidae [3]; [16]) of 2.5 mg/kg-day.
`C=COC(C)=O` [Vinyl acetate] gave an NOAEL (Rattus norvegicus [4]; drinking water, Kidney: Altered weight + Whole body: Altered weight) of 100 mg/kg-day, an NOAEL (Mus musculus [5]; chronic, duration: 104 weeks, inhalation, intermittent, Nasal cavity: Lesions) of 176 mg/m3 and an LOAEL (Rattus norvegicus [6]; [17]) of 704 mg/m3. It also gave an NOAEL (Rattus norvegicus [6]; [17]) of 176 mg/m3, an NOAEL (Rattus norvegicus [7]; chronic, duration: 104 weeks, inhalation, whole body, M/F, Crl:CD(SD)BR Sprague-Dawley, respiratory) of 174 mg/m3 and an NOAEL (Rattus norvegicus [7]; short-term, duration: 4 weeks, inhalation, whole body, M, Sprague-Dawley (Crl:CD BR), respiratory) of 703 mg/m3. The NOAEL (Rattus norvegicus [7]; short-term, duration: 5 days, inhalation, whole body, M, Sprague-Dawley (Crl:CD BR), respiratory) was 703 mg/m3.
Compound `P` [Phosphine] has an NOEL (Rattus norvegicus [4]; diet) of 0.026 mg/kg-day, an NOAEL (Mus musculus [5]; subchronic, duration: 13 weeks, inhalation, intermittent, Whole body: Decreased weight) of 1.4 mg/m3 and an NOEL (Rattus norvegicus [6]; oral, body weight and clinical parameters) of 0.026 mg/kg-day. The LOAEL (Mus musculus [8]; [18]) was 6.3 mg/m3 and the NOAEL (Mus musculus [8]; [18]) was 1.4 mg/m3.
For `c1ccccc1` [Benzene], the LC50 (Rattus norvegicus [9]; inhalation, Sprague-Dawley) was 43800 mg/m3, the LOAEL (Mus musculus [10]; repeat dose other, inhalation, CD1) was 31.9 mg/m3 and the LOAEL (Mus musculus [10]; [19]) was 63.9 mg/m3. It also gave an NOAEL (Mus musculus [10]; [19]) of 31.9 mg/m3, an NOAEL (Mus musculus [10]; reproduction developmental, duration: 6 days, inhalation, F, Crl: CFW(SW)Br, Charles River Laboratories) of 63.9 mg/m3 and an LOAEL (Mus musculus [10]; reproduction developmental, inhalation, F, CD1) of 958 mg/m3. It also gave an LOAEL (Mus musculus [10]; [20]) of 958 mg/m3, an NOAEL (Mus musculus [10]; [20]) of 95.8 mg/m3 and an LOAEL (Mus musculus [11]) of 264 mg/kg-day. The NOAEL (Mus musculus [11]) was 26.4 mg/kg-day, the NOEL (Rattus norvegicus [12]; duration: 13 weeks, gavage, M/F, Fischer 344, Deaths + Body Weight Changes: decrease + Hematology: WBC decrease, Lympho decrease + Histopathology: Spleen-B-cell depletion Spleen-…) was under 25 mg/kg-day and the LOAEL (Mus musculus [13]; short-term, duration: 6 days, inhalation, whole body, M, C57BL/6, immunological) was 32.6 mg/m3. For the same compound, the LOAEL (Mus musculus [13]; short-term, duration: 20 days, inhalation, M, C57Bl/6, immunological) was 31.9 mg/m3.
Compound `Nc1ccc(C=Cc2ccc(N)cc2S(=O)(=O)O)c(S(=O)(=O)O)c1` [4,4'-Diamino-2,2'-stilbenedisulfonic acid] has an LD50 (Cavia porcellus; oral) of 47000 mg/kg, an NOAEL (Rattus norvegicus [9]; reproduction developmental, oral, gavage, Sprague-Dawley, generation: F0) of 1000 mg/kg-day and an NOAEL (Rattus norvegicus [9]; reproduction developmental, oral, gavage, Sprague-Dawley, generation: F1) of 1000 mg/kg-day. The LC0 (Rattus norvegicus [14]; oral, Sprague-Dawley) was 3000 mg/kg.
`Cc1cc(Cl)ccc1OCC(=O)O` [2-(4-Chloro-2-methylphenoxy)acetic acid] showed an NOEL (Canidae [1]; duration: 52 weeks, Kidney: Effects + Liver: Effects) of 0.15 mg/kg-day, an LEL (Canidae [3]; [21]) of 0.75 mg/kg-day and an NOEL (Canidae [3]; [21]) of 0.15 mg/kg-day.
`ClCC(Cl)Cl` [1,1,2-Trichloroethane] gave an NOAEL (Mus musculus [15]; duration: 90 days, drinking water, Other) of 3.9 mg/kg-day, an LOAEL (Mus musculus [8]; [22]) of 44 mg/kg-day and an NOAEL (Mus musculus [8]; [22]) of 3.9 mg/kg-day. For the same compound, the LOAEL (Rattus norvegicus [7]; acute, duration: 4 hours, inhalation, whole body, M/F, Fischer 344, respiratory) was 316 mg/m3, the NOAEL (Rattus norvegicus [7]; acute, duration: 1 days, oral, gavage, M, Sprague-Dawley, hepatic) was 46 mg/kg-day and the NOAEL (Mus musculus [13]; subchronic, duration: 90 days, oral, drinking water, M/F, CD1, immunological, hepatic) was 3.9 mg/kg-day.
In the case of `CCCCC(CC)C(=O)O` (stereo not given) [2-Ethylhexanoic acid], the LD50 (Cavia porcellus; dermal) is reported as 6300 mg/kg and 5700 mg/kg and 4550 mg/kg, the LD50 (Cavia porcellus; dermal, occlusive) is reported as 6500 mg/kg and ≥ 5000 mg/kg and ≤ 10000 mg/kg and the LC50 (Cavia porcellus; inhalation) is reported as over 2.39 µg/mL. The LD50 (Rattus norvegicus [9]; dermal) was over 2000 mg/kg, the LC50 (Rattus norvegicus [9]; inhalation) was over 0.015 µg/mL and the LD50 (Rattus norvegicus [9]; oral, gavage) was ≥ 1600 mg/kg and ≤ 3200 mg/kg. For the same compound, the LD50 (Rattus norvegicus [9]; oral, gavage, Sprague-Dawley) was ≥ 1600 mg/kg and ≤ 3200 mg/kg, the NOAEL (Rattus norvegicus [9]; reproduction developmental, duration: 10 days, oral, gavage, F, Fischer 344) was 250 mg/kg-day and the NOAEL (Rattus norvegicus [9]; reproduction developmental, duration: 14 days, oral, drinking water, F, Wistar) was 300 mg/kg-day. It also gave an LOAEL (Rattus norvegicus [9]; reproduction developmental, oral, F, Sprague-Dawley) of 446 mg/kg-day, an NOAEL (Rattus norvegicus [9]; reproduction developmental, oral, Sprague-Dawley, generation: F1) of 446 mg/kg-day and an NOAEL (Rattus norvegicus [9]; reproduction developmental, oral, drinking water, Wistar, generation: F0) of 300 mg/kg-day. The NOAEL (Rattus norvegicus [9]; reproduction developmental, oral, drinking water, Wistar, generation: F1) was 100 mg/kg-day, the NOAEL (Rattus norvegicus [9]; reproduction developmental, oral, gavage, Wistar, generation: F1) was 900 mg/kg-day and the NOAEL (Rattus norvegicus [9]; short-term, duration: 2 weeks, oral, gavage, F, Fischer 344) was 200 mg/kg-day. The NOAEL (Rattus norvegicus [9]; short-term, duration: 2 weeks, oral, gavage, M, Fischer 344) was 200 mg/kg-day, the NOAEL (Rattus norvegicus [9]; subchronic, duration: 13 weeks, oral, diet, Fischer 344) was 300 mg/kg-day and the “LOAEL (% diet)” value (Rattus norvegicus [9]; [23]) was 0.5. The “NOAEL (% diet)” value (Rattus norvegicus [9]; [23]) was 0.1, the “NOAEL (% diet)” value (Rattus norvegicus [9]; subchronic, oral, diet, Fischer 344) was 5 and the LD50 (Mus musculus [10]; injection, Intraperitoneal) was 270 mg/kg. The LD50 (Mus musculus [10]; injection, subcutaneous) was 910 mg/kg, the “NOAEL (% diet)” value (Mus musculus [10]; repeat dose other, oral, diet) was 1 and the NOAEL (Mus musculus [10]; reproduction developmental, injection, Intraperitoneal, NMRI, generation: F1) was 500 mg/kg-day. It also gave an LOAEC (Mus musculus [10]; [24]) of 1730 mg/kg-day, an NOAEL (Mus musculus [10]; [24]) of at most 1150 mg/kg-day and an NOAEL (Mus musculus [10]; short-term, duration: 2 weeks, oral, gavage, F, B6C3F1) of 1600 mg/kg-day. For the same compound, the NOAEL (Mus musculus [10]; short-term, duration: 2 weeks, oral, gavage, M, B6C3F1) was 800 mg/kg-day, the LD50 (Oryctolagus sp.) was 1260 mg/kg and the NOAEL (Oryctolagus sp.; F, New Zealand) was 25 mg/kg-day. For the same compound, the NOAEL (Oryctolagus sp.; New Zealand, generation: F1) was 250 mg/kg-day, the LC0 (Rattus norvegicus [14]; inhalation) was 2.36 mg/L and the NOAEL (Rattus norvegicus [12]; [25]) was 0.5%. For the same compound, the NOEL (Rattus norvegicus [12]; [25]) was 0.1%, the NOEL (Rattus norvegicus [12]; diet, F, F344/CrjBR, Body Weight Changes: decrease + Food Consumption: decrease + Blood Chemistry: Cho increase , Alb increase + Absolute Organ Weight: Liver …) was under 71 mg/kg-day and the NOEL (Rattus norvegicus [12]; diet, M/F, F344/CrjBR, Body Weight Changes: decrease + Food Consumption: decrease + Blood Chemistry: Cho increase , Alb increase + Absolute Organ Weight: Liver …) was under 0.1%.
With `COP(=O)(OC)O/C(=C/Cl)c1cc(Cl)c(Cl)cc1Cl` [Tetrachlorovinphos] the NOEL (Canidae [1]; duration: 2 years, Kidney: Increased weight + Liver: Increased weight) was 3.1 mg/kg-day, the LEL (Canidae [3]; [26]) was 50 mg/kg-day and the NOEL (Canidae [3]; [26]) was 3.13 mg/kg-day.
In the case of `Clc1ccc2ccccc2c1` [2-Chloronaphthalene], the NOAEL (Mus musculus [15]; duration: 13 weeks, gavage, Respiratory) is reported as 250 mg/kg-day, the LOAEL (Mus musculus [8]; [27]) is reported as 600 mg/kg-day and the NOAEL (Mus musculus [8]; [27]) is reported as 250 mg/kg-day.
`Cc1cc(C(C)(C)c2cc(C)c(O)c(C)c2)cc(C)c1O` [4,4'-Propane-2,2-diylbis(2,6-dimethylphenol)] was tested, and the LOEL (Microhyla ornata; duration: 9 day, M/F, DNA fragmentation) was 1 µM and the LOEL (Microhyla ornata; duration: 11 day, EGFP activitiy) was 1 µM.
With `Cc1cccnc1` [3-Methylpyridine] the LC50 (Rattus norvegicus [9]; inhalation, Sprague-Dawley) was under 11800 µg/mL, the LD50 (Rattus norvegicus [9]; oral, gavage, Fischer 344) was 630 mg/kg and the LD50 (Rattus norvegicus [9]; oral, gavage, Sprague-Dawley) was 710 mg/kg. The LOAEL (Rattus norvegicus [9]; short-term, duration: 2 weeks, inhalation, Crl:CD(SD) BR) was 1100 mg/m3, the LD50 (Oryctolagus sp.; occlusive, New Zealand) was ≥ 126 mg/kg and ≤ 200 mg/kg and the LC0 (Rattus norvegicus [14]; inhalation, Crl:CD(SD) BR) was ≥ 4950 mg/m3 and ≤ 12600 mg/m3.
For `c1ccc2c(c1)Cc1ccccc1-2` [Fluorene], the NOAEL (Mus musculus [5]; subchronic, duration: 13 weeks, oral, gavage, Erythrocytes: Decreased counts) was 125 mg/kg-day, the LOAEL (Mus musculus [8]; [28]) was 250 mg/kg-day and the NOAEL (Mus musculus [8]; [28]) was 125 mg/kg-day. It also gave an LOAEL (Mus musculus [13]; subchronic, duration: 90 days, oral, gavage, M/F, CD1, hepatic) of 125 mg/kg-day.
Compound `CC(CCl)OC(C)CCl` (stereo not given) [bis(2-Chloro-1-methylethyl) ether] has an LOAEL (Mus musculus [15]; duration: 13 weeks, gavage, M, SPF-ICR) of 9.69 mg/kg-day, an LOAEL (Mus musculus [8]; [29]) of 198 mg/kg-day and an NOAEL (Mus musculus [8]; [29]) of 35.8 mg/kg-day.
In the case of `CCOP(=S)(OCC)SCSC(C)(C)C` [Terbufos], the NOAEL (Canidae [1]; duration: 6 months, Cholinesterase: Inhibition) is reported as 0.0025 mg/kg-day.
